Reference: patent US20050004029A1, “Methods and compositions for treating vascular leak using hepatocyte growth factor” (priority 2001, published 2005)

Key:
[1] = tested on: Human pulmonary artery endothelial cells; test: Transendothelial electrical resistance (TER) of human pulmonary artery endothelial cell monolayers; assay type: cell-based; details: then HGF 20 ng/ml; for effect on HGF-induced increases in TER, in words: pretreatment LY294002 25 μM, UO126 10 μM, SB203580 20 μM, Ro-31-2880 10 μM
Experimental: (§1) Bovine pulmonary artery endothelial cells were purchased from the American Type Culture Collection (ATCC®, Rockville, Md.) and utilized at passage 19-24. Cells were maintained in Medium 199 (Life Technologies, Rockville, Md.) supplemented with 20% (v/v) colostrum-free bovine serum (CFBS) (Irvine Scientific, Santa Ana, Calif.), 15 μg/ml endothelial cell growth supplement (Upstate Biotechnology, Lake Placid, N.Y.), 1% antibiotic and antimycotic, and 0.1 mM non-essential amino acids (Life Technologies). Human pulmonary artery endothelial cells were purchased from Clonetics (Walkersville, Md.), cultured in EBM-2 complete medium (Clonetics) and utilized at passage 5-10. Human alveolar epithelial cells (A549) were purchased from ATCC® and cultured in the same medium as the bovine endothelial cells, except that the endothelial cell growth supplement was omitted. All cells were maintained at 37° C. in a humidified atmosphere of 5% CO2 and 95% air. Both endothelial cell types grew to contact-inhibited monolayers with the typical cobblestone morphology (Garcia, J. G. N. et al. (1995) J. Cell. Physiol. 163:510-522; Liu, F. et al. (2001) Am. J. Respir. Cell. Mol. Biol. 24:711-719).
Electrical resistance of EC monolayers was measured using electrical cell impedance sensor system (Applied Biophysics Inc., Troy, N.Y.) as described in Garcia, J. G. N. et al. (2000) J. Appl. Physiol. 89:2333-2343. Cells grown on gold microelectrodes (10^−3 cm^2) in polycarbonate wells act as insulating particles, and the resistance across the monolayers (transendothelial electrical resistance, or TER) is measured in real time. As cells adhere on the microelectrode and intercellular cell contacts are formed or in response to agents which increase junctional integrity, the TER increases (Garcia, J. G. N. et al. (2001) J. Clin. Invest. 108:689-711). In contrast, cell retraction, rounding, or loss of adhesion is reflected by decreases in TER (Garcia, J. G. N. et al. (2000) J. Appl. Physiol. 89:2333-2343). These measurements provide a highly sensitive biophysical assay that indicates the state of cell shape, focal adhesion, and endothelial barrier function (Giaever, I. and Keese, C. R. (1993) Nature 366:591-592; Tiruppathi, C. et al. (1992) Proc. Natl. Acad. Sci. USA 89:7919-7923). All electrical resistance data are presented as normalized values. Briefly, current was applied across the electrodes by a 4000 Hz AC voltage source with an amplitude of 1 V in series with a 1 MΩ resistance to approximate a constant current source (−1 μA). The small gold electrode and the larger counter electrode (1 cm^2) were connected to a phase-sensitive lock-in amplifier (5301A; EG&G Instruments Corp, Princeton, N.J.) with a built in differential preamplifier (5316A; EG&G Instruments Corp.). The in-phase and out-of-phase voltages between the electrodes were monitored in real time with the lock-in amplifier and converted to scalar measurements of transendothelial impedance, of which resistance was the primary focus. Transendothelial electrical resistance was monitored for 30 min to establish a baseline resistance (Ro) which, for human lung endothelium, was typically between 8 to 12×10^3 Ω (wells with R0<7×10^3 Ω or R0 >15×10^3 Ω were rejected). For some experiments, total TER was vectorially resolved into components reflecting resistance to current flow beneath the cell layer (α) and resistance to current flow between adjacent cells (Rb) as described in Garcia et al. (2000) supra utilizing the method of Giaiver and Keese which models the endothelial monolayer mathematically (Giaever, I. and Keese, C. R. (1993) Nature 366:591-592). Thus, changes in α reflect alterations in the net state of cell-matrix adhesion, whereas changes in Rb reflect alterations in the integrity of cell-cell adhesion. TER values from each microelectrode were pooled at discrete time points and plotted versus time as the mean±standard error of the mean (Garcia et al. (2000) supra). […]

[2] = tested on: human endothelial monolayers; test: F-actin immunofluorescent microscopy (cortical actin ring); assay type: cell-based; details: LY294002 25 μM, 1 hr or SB203580 20 μM, 30 min; HGF 20 ng/ml
Experimental: Endothelial cell monolayers grown on gelatinized cover slips were rinsed with M199 and incubated with agonists in the same medium in a 37° C. incubator (5% CO2). Monolayers were then rinsed with PBS (3×2 min), fixed in 4% paraformaldehyde for 10 min, again rinsed with PBS (3×2 min), and permeabilized with 0.25% Triton X-100 for 5 min. Cells were then washed briefly with PBS (3×2 min), blocked with PBS containing 2% BSA for 30 min and incubated with 1 Unit/mL of Texas Red-X phalloidin (Molecular Probes, Eugene, Oreg.), β-catenin antibody (Transduction Laboratories, Lexington, Ky.), glycogen synthase kinase-3 β (GSK-3β) (Santa Cruz Biotechnology, Inc., Santa Cruz, Calif.), or mono-phosphorylated MLC antisera (see Garcia, J. G. N. et al. (2001) J. Clin. Invest. 108:689-711) for 1 hr. After washing with PBS (3×2 min), cover slips were mounted on slides using SlowFade mounting medium (Molecular Probes). Cells were analyzed using a 60× oil objective on a Nikon Eclipse TE 300 microscope. Images were captured by Sony Digital Photo camera DKC 5000. […]
The effect of HGF on the spatial localization of polymerized actin in human endothelial monolayers was investigated by immunofluorescent microscopy. […] F-actin staining was assessed with Texas red phalloidin and myosin light chain staining evaluated with anti-monophosphorylated myosin light chain polyclonal antibody.

p42/44 ERK = p42/44 ERK activation by phospho-specific immunoblotting; assay type: cell-based, human; details: UO126 10 μM, 30 min; HGF 20 ng/ml, 15 min
Experimental: Endothelial cell monolayers grown to confluence in 12-well plates and challenged with HGF were lysed with 100 μl of 2×SDS sample buffer, and cell lysates were transferred into microcentrifuge tubes and boiled for 5 min. After a brief spin, proteins from 10 μl cell lysates were separated on 12% SDS-PAGE and transferred to nitrocellulose (Schleicher & Schuell, Keene, N.H.) (30V, 18 h). After blocking with PBST (PBS with 0.1% Tween 20) containing 5% non-fat milk for 1 hr, nitrocellulose blots were reacted with primary antibodies diluted in PBST containing 5% BSA for 1 hr, washed with PBST (3×10 min), incubated with peroxidase-conjugated secondary antibodies (goat anti-rabbit IgG, 1:10,000 dilution, Sigma; or goat anti-mouse IgG, 1:10,000 dilution, Bio-Rad Labs, Richmond, Calif.) diluted in PBST with 5% non-fat milk for 1 hr and again washed with PBST (3×10 min). Finally, immunoreactive proteins were detected using ECL. The relative intensities of the protein bands were quantified by scanning densitometry.
The MAP family of kinases (ERK1/2 and p38) are actively involved in agonist-induced endothelial cell actin reorganization and barrier regulation (Verin, A. D. et al. (2000) Am. J. Physiol: Lung Cell Molec. Phys. 279:L360-L370, 2000; Garcia, J. G. N. et al. (2001) J. Clin. Invest. 108:689-711) and have been noted to participate in HGF-mediated cell activation (Liang, C. C. and Chen, H. C. (2001) J. Biol. Chem. 276:21146-21152). These reports were confirmed in human endothelial cell monolayers incubated with HGF (20 ng/ml, for 1, 2, 5, 10, 15, 20, 30, 60, or 120 min) where activation of p42/44 ERK and p38 MAPK by HGF was detected by immunoblotting with antibodies that only recognize the phosphorylated (activated) forms of ERK or p38 MAPK. The activation of ERKs was evident at 5 min, maximal after 10-15 min with a gradual decline thereafter, but remaining sustained above basal levels for more than 2 hrs. […] The onset of HGF-mediated activation of p38 MAPK was similar to ERK, with plateau at 10-15 min. However, the duration of this response was much more truncated than ERK activation, beginning to decline by 20 min and returning to basal value by 1 hr.

[3] = tested on: Bovine Pulmonary Artery Endothelium; test: Transendothelial electrical resistance (TER) across bovine pulmonary artery endothelium; assay type: cell-based; details: VEGF 100 ng/ml, Sph 1-P 1 μM, HGF 20 ng/ml; for TER response in words: thrombin, 10-60 min; for changes in TER 30 min / changes in TER 60 min / changes in TER 10 min: vs vehicle control, ±SEM, thrombin 100 μM; for changes in TER 10 min: (+) increased, (−) decreased
Experimental: as §1, with “air.” for “air. Both endothelial cell types grew to contact-inhibited monolayers with the typical cobblestone morphology (Garcia, J. G. N. et al. (1995) J. Cell. Physiol. 163:510-522; Liu, F. et al. (2001) Am. J. Respir. Cell. Mol. Biol. 24:711-719).”
Electrical resistance of EC monolayers was measured using electrical cell impedance sensor system (Applied Biophysics Inc., Troy, N.Y.) as described in Garcia, J. G. N. et al. (2000) J. Appl. Physiol. 89:2333-2343. Cells grown on gold microelectrodes (10^−3 cm^2) in polycarbonate wells act as insulating particles, and the resistance across the monolayers (transendothelial electrical resistance, or TER) is measured in real time. As cells adhere on the microelectrode and intercellular cell contacts are formed or in response to agents which increase junctional integrity, the TER increases (Garcia, J. G. N. et al. (2001) J. Clin. Invest. 108:689-711). In contrast, cell retraction, rounding, or loss of adhesion is reflected by decreases in TER (Garcia, J. G. N. et al. (2000) J. Appl. Physiol. 89:2333-2343). These measurements provide a highly sensitive biophysical assay that indicates the state of cell shape, focal adhesion, and endothelial barrier function (Giaever, I. and Keese, C. R. (1993) Nature 366:591-592; Tiruppathi, C. et al. (1992) Proc. Natl. Acad. Sci. USA 89:7919-7923). All electrical resistance data are presented as normalized values. Briefly, current was applied across the electrodes by a 4000 Hz AC voltage source with an amplitude of 1 V in series with a 1 MΩ resistance to approximate a constant current source (−1 μA). The small gold electrode and the larger counter electrode (1 cm^2) were connected to a phase-sensitive lock-in amplifier (5301A; EG&G Instruments Corp, Princeton, N.J.) with a built in differential preamplifier (5316A; EG&G Instruments Corp.). The in-phase and out-of-phase voltages between the electrodes were monitored in real time with the lock-in amplifier and converted to scalar measurements of transendothelial impedance, of which resistance was the primary focus. […] For some experiments, total TER was vectorially resolved into components reflecting resistance to current flow beneath the cell layer (α) and resistance to current flow between adjacent cells (Rb) as described in Garcia et al. (2000) supra utilizing the method of Giaiver and Keese which models the endothelial monolayer mathematically (Giaever, I. and Keese, C. R. (1993) Nature 366:591-592). Thus, changes in α reflect alterations in the net state of cell-matrix adhesion, whereas changes in Rb reflect alterations in the integrity of cell-cell adhesion. TER values from each microelectrode were pooled at discrete time points and plotted versus time as the mean±standard error of the mean (Garcia et al. (2000) supra).

**Q.** How did the “reduction of HGF-induced increase in TER” value ([1]; inhibitor pretreatment (LY294002 25 μM; Ro-31-2880 10 μM)) turn out when `O=c1cc(N2CCOCC2)oc2c(-c3ccccc3)cccc12` [LY294002, reference compound] was run?
**A.** > 50%

**Q.** For `C[S+]([O-])c1ccc(-c2nc(-c3ccncc3)c(-c3ccc(F)cc3)[nH]2)cc1` (stereo not shown) [SB203580, reference compound], which “effect on HGF-induced increases in TER, in words” value [1] is on record?
**A.** significantly blocked

**Q.** What about the “effect on HGF-elicited cortical actin ring formation / actin remodeling” value [2] of the same compound?
**A.** significantly attenuated

**Q.** `N#CC(=C(/N)Sc1ccccc1N)/C(C#N)=C(/N)Sc1ccccc1N` [UO126, reference compound] was tested. Which “effect on HGF-induced increases in TER, in words” value [1] did it give?
**A.** significantly blocked

**Q.** And the “effect on HGF-stimulated ERK activity” value (p42/44 ERK)?
**A.** completely abolished

**Q.** Which results are given for Thrombin?
**A.** TER response in words [3]: rapidly decreases TER values which begin to abate after 30 min; changes in TER 30 min [3]: −50 ± 4%; changes in TER 60 min [3]: −14 ± 4%; changes in TER 10 min [3]: +30 ± 3%

**Q.** How did the “TER response in words” value [3] turn out when VEGF was run?
**A.** early increase in TER, which then falls to produce mild barrier dysfunction

**Q.** What about the “changes in TER 30 min” value [3] of the same compound?
**A.** 0% ± 3%

**Q.** What about the “changes in TER 60 min” value [3] of the same compound?
**A.** −20 ± 4%

**Q.** And the “changes in TER 10 min” value [3]?
**A.** +30 ± 4%
